These results are taken from US20260201008A1, “SECRETIN-DERIVED GLP1R SELECTIVE AGONISTS” (GUBRA A/S, priority 2023, published 2026).

The target of one data set is GLP1R (Homo sapiens, UniProt P43220). The experiment in a line: hGLP1R potency, cAMP accumulation in CHO-K1 cells stably overexpressing hGLP1R. The data set is classed as cell-based. Further details: host or cells: CHO-K1. The following applies: for EC50: cAMP accumulation, CHO-K1 cells overexpressing hGLP1R, read-out: hGLP1R pEC50 (converted); for SCTR EC50/GLP1R EC50 ratio: selectivity for hGLP1R over hSCTR, cAMP accumulation in CHO-K1 cells. In short, it runs like this:
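Thawed cells go straight into buffer containing 0.5 mM IBMX and 0.05% casein, get graded compound doses for 30 min at room temperature, and are then assayed for accumulated cAMP by time-resolved FRET. Human GLP-1(7-36) serves as positive control; EC50 is derived by nonlinear regression.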

A short description of data set [1]: Turbidity of crude library peptides (absorbance at 600 nm). The data set is classed as physicochemical. As to conditions: Physical stability of peptides. In short, it runs like this: (§1)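 Crude peptides at 267 μM in 50 mM sodium acetate pH 4.0 or 50 mM sodium phosphate pH 7.0, pre-incubated 1-2 h at room temperature, then 4 μM final ThT added. Turbidity read first as A600. ThT fluorescence (ex 450/em 480 nm) read every 10 min for 72 h at 40° C, with 5 min shaking before each read; fibril formation = average emission.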

Data set [2] can be described thus: Fibril formation of crude library peptides (Thioflavin T). It counts as physicochemical. Set-up: key: average ThT fluorescence emission at 480 nm (ex 450 nm), raw units. As to conditions: Physical stability of peptides. In outline:
as §1

The next data set has as its target SCTR (Homo sapiens, UniProt P47872). The experiment in a line: hSCTR potency, cAMP accumulation in CHO-K1 cells stably overexpressing hSCTR. It counts as cell-based. Further details: alternatively Euroscreen ES-712-AF; FAST-0161L; host or cells: CHO-K1. As to conditions: cAMP accumulation, CHO-K1 cells overexpressing hSCTR; read-out: hSCTR pEC50 (converted). In short, it runs like this: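 Read-out is TR-FRET cAMP detection, recorded one hour after reagent addition, in CHO-K1 cells stably overexpressing hSCTR. Cells in DPBS containing 0.05% casein and 0.5 mM IBMX are exposed to graded peptide doses for 30 min at room temperature, with human secretin as reference agonist.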

Numbered stars: 1 amine (or outer) side, 2 acyl side, 3 side chain; on linkers, the order of the positions; unused ones are H or OH. Square brackets hold non-standard residues; d marks the D form. Side chains are listed from the residue outwards. Peptide text beside a SMILES is read from it. * marks the point of attachment. C20 diacid = O=C(O)CCCCCCCCCCCCCCCCCCC(=O)*; γGlu = O=C(O)[C@H](CCC(=O)[*:2])N[*:1]; AEEA = NCCOCCOCC(=O)O; Aib = CC(C)(N)C(=O)O

Chain of SCTR (P47872 23-440): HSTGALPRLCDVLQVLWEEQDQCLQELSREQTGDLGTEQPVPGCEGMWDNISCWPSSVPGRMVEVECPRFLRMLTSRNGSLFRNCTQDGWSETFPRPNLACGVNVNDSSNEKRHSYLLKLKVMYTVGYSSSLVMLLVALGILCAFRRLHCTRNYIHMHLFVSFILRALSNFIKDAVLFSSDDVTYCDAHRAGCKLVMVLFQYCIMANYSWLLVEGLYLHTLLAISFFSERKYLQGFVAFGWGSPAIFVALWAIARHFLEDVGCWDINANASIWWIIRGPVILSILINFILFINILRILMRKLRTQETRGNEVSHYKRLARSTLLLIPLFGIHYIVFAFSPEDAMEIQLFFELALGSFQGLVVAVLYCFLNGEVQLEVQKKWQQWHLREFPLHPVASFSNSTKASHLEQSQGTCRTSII
Chain of GLP1R (P43220 24-463): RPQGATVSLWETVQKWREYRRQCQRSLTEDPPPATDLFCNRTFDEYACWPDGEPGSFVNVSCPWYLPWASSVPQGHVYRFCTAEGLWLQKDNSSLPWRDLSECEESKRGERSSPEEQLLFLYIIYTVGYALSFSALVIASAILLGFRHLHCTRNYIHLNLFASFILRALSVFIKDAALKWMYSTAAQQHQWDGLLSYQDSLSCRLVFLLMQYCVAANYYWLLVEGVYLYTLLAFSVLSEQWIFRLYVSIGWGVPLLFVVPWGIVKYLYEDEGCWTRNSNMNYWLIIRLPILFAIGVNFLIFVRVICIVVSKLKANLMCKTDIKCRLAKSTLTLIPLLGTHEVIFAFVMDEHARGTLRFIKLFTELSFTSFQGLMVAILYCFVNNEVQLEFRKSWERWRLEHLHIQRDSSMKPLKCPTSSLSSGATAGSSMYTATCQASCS

For the compound `CC(C)C[C@H](NC(=O)[C@H](Cc1ccccc1)NC(=O)[C@H](CCCNC(=N)N)NC(=O)[C@H](CCC(N)=O)NC(=O)CNC(=O)C(C)(C)NC(=O)[C@H](C)NC(=O)[C@H](CCC(=O)O)NC(=O)[C@H](CCC(=O)O)NC(=O)[C@H](CCCCNC(=O)COCCOCCNC(=O)COCCOCCNC(=O)CC[C@H](NC(=O)CCCCCCCCCCCCCCCCCCC(=O)O)C(=O)O)NC(=O)[C@H](CC(C)C)NC(=O)[C@H](Cc1ccc(O)cc1)NC(=O)[C@H](CO)NC(=O)[C@@H](NC(=O)[C@H](CC(=O)O)NC(=O)[C@H](CO)NC(=O)[C@@H](NC(=O)[C@H](Cc1ccccc1)NC(=O)[C@@H](NC(=O)CNC(=O)[C@H](CCC(=O)O)NC(=O)C(C)(C)NC(=O)[C@@H](N)Cc1c[nH]cn1)[C@@H](C)O)[C@@H](C)O)C(C)C)C(=O)N[C@@H](CCC(=O)O)C(=O)N[C@@H](Cc1c[nH]cn1)C(=O)N[C@@H](CC(C)C)C(=O)N[C@H](C(N)=O)C(C)C` [compound 154] (H-H[Aib]EGTFTSDVSYLK([AEEA-AEEA-γGlu-C20 diacid])EEA[Aib]GQRFLEHLV-NH2), the EC50 at GLP1R is 0.0158 nM; at SCTR, 3980 nM. Moreover, the “SCTR EC50/GLP1R EC50 ratio” value at GLP1R came out at 203892. Further, in data set [1], the “Turbidity (pH 7)” value worked out at 0.08. In data set [2], this compound displayed a Fibril formation of 3107.
As for `CC(C)C[C@H](NC(=O)[C@H](Cc1ccccc1)NC(=O)[C@H](CCCNC(=N)N)NC(=O)[C@H](CCC(N)=O)NC(=O)[C@H](CC(C)C)NC(=O)C(C)(C)NC(=O)[C@H](C)NC(=O)[C@H](CCC(=O)O)NC(=O)[C@H](CCC(=O)O)NC(=O)[C@H](CCCCNC(=O)COCCOCCNC(=O)COCCOCCNC(=O)CC[C@H](NC(=O)CCCCCCCCCCCCCCCCCCC(=O)O)C(=O)O)NC(=O)[C@H](CC(C)C)NC(=O)[C@H](Cc1ccc(O)cc1)NC(=O)[C@H](CO)NC(=O)[C@@H](NC(=O)[C@H](CC(=O)O)NC(=O)[C@H](CO)NC(=O)[C@@H](NC(=O)[C@H](Cc1ccccc1)NC(=O)[C@@H](NC(=O)CNC(=O)[C@@H](NC(=O)C(C)(C)NC(=O)[C@@H](N)Cc1c[nH]cn1)C(C)C)[C@@H](C)O)[C@@H](C)O)C(C)C)C(=O)N[C@@H](CCC(=O)O)C(=O)N[C@@H](Cc1c[nH]cn1)C(=O)N[C@@H](CC(C)C)C(=O)N[C@H](C(N)=O)C(C)C` [compound 155] (H-H[Aib]VGTFTSDVSYLK([AEEA-AEEA-γGlu-C20 diacid])EEA[Aib]LQRFLEHLV-NH2), on GLP1R, the EC50 is 0.0126 nM and the “SCTR EC50/GLP1R EC50 ratio” value is given as 1853532. Further, in data set [1], the “Turbidity (pH 7)” value worked out at 0.08. Moreover, in data set [2], the Fibril formation was 4368. Also, at SCTR, the EC50 is 25100 nM.
For `CC(C)C[C@H](NC(=O)[C@H](Cc1ccccc1)NC(=O)[C@H](CCCNC(=N)N)NC(=O)[C@H](CCC(N)=O)NC(=O)[C@H](CCC(N)=O)NC(=O)C(C)(C)NC(=O)[C@H](C)NC(=O)[C@H](CCC(=O)O)NC(=O)[C@H](CCC(=O)O)NC(=O)[C@H](CCCCNC(=O)COCCOCCNC(=O)COCCOCCNC(=O)CC[C@H](NC(=O)CCCCCCCCCCCCCCCCCCC(=O)O)C(=O)O)NC(=O)[C@H](CC(C)C)NC(=O)[C@H](Cc1ccc(O)cc1)NC(=O)[C@H](CO)NC(=O)[C@@H](NC(=O)[C@H](CC(=O)O)NC(=O)[C@H](CO)NC(=O)[C@@H](NC(=O)[C@H](Cc1ccccc1)NC(=O)[C@@H](NC(=O)CNC(=O)[C@H](CCC(=O)O)NC(=O)C(C)(C)NC(=O)[C@@H](N)Cc1c[nH]cn1)[C@@H](C)O)[C@@H](C)O)C(C)C)C(=O)N[C@@H](CCC(=O)O)C(=O)N[C@@H](Cc1c[nH]cn1)C(=O)N[C@@H](CC(C)C)C(=O)N[C@H](C(N)=O)C(C)C` [compound 157] (H-H[Aib]EGTFTSDVSYLK([AEEA-AEEA-γGlu-C20 diacid])EEA[Aib]QQRFLEHLV-NH2) the same measures were 0.00251 nM, 121171, 0.09, 3415 and 316 nM.
As for `CC(C)C[C@H](NC(=O)[C@H](Cc1ccccc1)NC(=O)[C@H](CCCNC(=N)N)NC(=O)[C@H](CCC(N)=O)NC(=O)[C@H](CC(C)C)NC(=O)C(C)(C)NC(=O)[C@H](C)NC(=O)[C@H](CCC(=O)O)NC(=O)[C@H](CCC(=O)O)NC(=O)C(C)(C)NC(=O)[C@H](CC(C)C)NC(=O)[C@H](Cc1ccc(O)cc1)NC(=O)[C@H](CO)NC(=O)[C@@H](NC(=O)[C@H](CC(=O)O)NC(=O)[C@H](CO)NC(=O)[C@@H](NC(=O)[C@H](Cc1ccccc1)NC(=O)[C@@H](NC(=O)CNC(=O)[C@H](CCC(=O)O)NC(=O)C(C)(C)NC(=O)[C@@H](N)Cc1c[nH]cn1)[C@@H](C)O)[C@@H](C)O)C(C)C)C(=O)N[C@@H](CCC(=O)O)C(=O)N[C@@H](CCCCNC(=O)COCCOCCNC(=O)COCCOCCNC(=O)CC[C@H](NC(=O)CCCCCCCCCCCCCCCCCCC(=O)O)C(=O)O)C(=O)N[C@@H](CC(C)C)C(=O)N[C@H](C(N)=O)C(C)C` [compound 158] (H-H[Aib]EGTFTSDVSYL[Aib]EEA[Aib]LQRFLEK([AEEA-AEEA-γGlu-C20 diacid])LV-NH2), the EC50 is 0.0398 nM on GLP1R and 1580 nM on SCTR. Moreover, the “SCTR EC50/GLP1R EC50 ratio” value at GLP1R came to 41049. The “Turbidity (pH 7)” value in data set [1] was 0.08. The compound also showed a Fibril formation in data set [2] of 4465.
In the case of `CC(C)C[C@H](NC(=O)[C@H](Cc1ccccc1)NC(=O)[C@H](CCCNC(=N)N)NC(=O)[C@H](CCC(N)=O)NC(=O)[C@H](CC(C)C)NC(=O)C(C)(C)NC(=O)[C@H](C)NC(=O)[C@H](CCC(=O)O)NC(=O)[C@H](CCC(=O)O)NC(=O)[C@H](CCCCNC(=O)COCCOCCNC(=O)COCCOCCNC(=O)CC[C@H](NC(=O)CCCCCCCCCCCCCCCCCCC(=O)O)C(=O)O)NC(=O)[C@H](CC(C)C)NC(=O)[C@H](Cc1ccc(O)cc1)NC(=O)[C@H](CO)NC(=O)[C@@H](NC(=O)[C@H](CC(=O)O)NC(=O)[C@H](CO)NC(=O)[C@@H](NC(=O)[C@H](Cc1ccccc1)NC(=O)[C@@H](NC(=O)CNC(=O)[C@H](Cc1ccc(O)cc1)NC(=O)C(C)(C)NC(=O)[C@@H](N)Cc1c[nH]cn1)[C@@H](C)O)[C@@H](C)O)C(C)C)C(=O)N[C@@H](CCC(=O)O)C(=O)N[C@@H](Cc1c[nH]cn1)C(=O)N[C@@H](CC(C)C)C(=O)N[C@H](C(N)=O)C(C)C` [compound 159] (H-H[Aib]YGTFTSDVSYLK([AEEA-AEEA-γGlu-C20 diacid])EEA[Aib]LQRFLEHLV-NH2), the EC50 on GLP1R was 0.794 nM; on SCTR, 25100 nM. Besides, on GLP1R, the “SCTR EC50/GLP1R EC50 ratio” value worked out at 34730. For the same compound, in data set [1], the “Turbidity (pH 7)” value stood at 0.08. For the same compound, the Fibril formation in data set [2] was 5426.
Consider `CC(C)C[C@H](NC(=O)[C@H](Cc1ccccc1)NC(=O)[C@H](CCCNC(=N)N)NC(=O)[C@H](CCC(N)=O)NC(=O)[C@H](CC(C)C)NC(=O)C(C)(C)NC(=O)[C@H](C)NC(=O)[C@H](CCC(=O)O)NC(=O)[C@H](CCC(=O)O)NC(=O)[C@H](CCCCNC(=O)COCCOCCNC(=O)COCCOCCNC(=O)CC[C@H](NC(=O)CCCCCCCCCCCCCCCCCCC(=O)O)C(=O)O)NC(=O)[C@H](CC(C)C)NC(=O)[C@H](Cc1ccc(O)cc1)NC(=O)[C@H](CO)NC(=O)[C@@H](NC(=O)[C@H](CC(=O)O)NC(=O)[C@H](CO)NC(=O)[C@@H](NC(=O)[C@H](Cc1ccccc1)NC(=O)[C@@H](NC(=O)CNC(=O)[C@H](Cc1c[nH]c2ccccc12)NC(=O)C(C)(C)NC(=O)[C@@H](N)Cc1c[nH]cn1)[C@@H](C)O)[C@@H](C)O)C(C)C)C(=O)N[C@@H](CCC(=O)O)C(=O)N[C@@H](Cc1c[nH]cn1)C(=O)N[C@@H](CC(C)C)C(=O)N[C@H](C(N)=O)C(C)C` [compound 160] (H-H[Aib]WGTFTSDVSYLK([AEEA-AEEA-γGlu-C20 diacid])EEA[Aib]LQRFLEHLV-NH2), for which, at GLP1R, the EC50 is 0.794 nM and the “SCTR EC50/GLP1R EC50 ratio” value amounted to 33562. Also, the “Turbidity (pH 7)” value in data set [1] is 0.09. The compound further gave a Fibril formation in data set [2] of 4754. In addition, the EC50 at SCTR was 25100 nM.
For the compound `CC(C)C[C@H](NC(=O)[C@H](Cc1ccccc1)NC(=O)[C@H](CCCNC(=N)N)NC(=O)[C@H](CCC(N)=O)NC(=O)[C@@H](NC(=O)C(C)(C)NC(=O)[C@H](C)NC(=O)[C@H](CCC(=O)O)NC(=O)[C@H](CCC(=O)O)NC(=O)[C@H](CCCCNC(=O)COCCOCCNC(=O)COCCOCCNC(=O)CC[C@H](NC(=O)CCCCCCCCCCCCCCCCCCC(=O)O)C(=O)O)NC(=O)[C@H](CC(C)C)NC(=O)[C@H](Cc1ccc(O)cc1)NC(=O)[C@H](CO)NC(=O)[C@@H](NC(=O)[C@H](CC(=O)O)NC(=O)[C@H](CO)NC(=O)[C@@H](NC(=O)[C@H](Cc1ccccc1)NC(=O)[C@@H](NC(=O)CNC(=O)[C@H](CCC(=O)O)NC(=O)C(C)(C)NC(=O)[C@@H](N)Cc1c[nH]cn1)[C@@H](C)O)[C@@H](C)O)C(C)C)C(C)C)C(=O)N[C@@H](CCC(=O)O)C(=O)N[C@@H](Cc1c[nH]cn1)C(=O)N[C@@H](CC(C)C)C(=O)N[C@H](C(N)=O)C(C)C` [compound 161] (H-H[Aib]EGTFTSDVSYLK([AEEA-AEEA-γGlu-C20 diacid])EEA[Aib]VQRFLEHLV-NH2), on GLP1R, the EC50 is 0.00398 nM and the “SCTR EC50/GLP1R EC50 ratio” value is reported as 42442. Also, the “Turbidity (pH 7)” value in data set [1] came to 0.08. In data set [2], this compound had a Fibril formation of 3973. The EC50 on SCTR was 158 nM.
